Experimental data: paper PMC10065799, “High-throughput profiling of sequence recognition by tyrosine kinases and SH2 domains using bacterial peptide display” (eLife, 2023)

Experiments:
Fes = test: pTyr-Var library bacterial peptide display kinase screen (enrichment scores); format: biochemical; conditions: mean of log2 of enrichment over R1-R6
FGFR1 kinase domain = test: as above; format: biochemical, human
Fer kinase domain = test: as above; format: biochemical, mouse
EPHB1 kinase domain = test: as above; format: biochemical, human
AncSZ kinase domain = test: as above; format: biochemical
c-Src kinase domain = c-Src kinase domain (Homo sapiens, UniProt P12931); test: as above; format: biochemical
Hck kinase domain = test: as above; format: biochemical, human
FGFR3 kinase domain = test: as above; format: biochemical, human
EPHB2 kinase domain = test: as above; format: biochemical, human
Grb2 SH2 domain = test: pTyr-Var library SH2 domain screen with SH2-dynabeads (enrichment scores)
Fyn kinase domain = test: pTyr-Var library bacterial peptide display kinase screen (enrichment scores); format: biochemical, human
[1] = tested on: 4G10 Platinum pan-phosphotyrosine antibody; test: Phosphorylated pTyr-Var library selection with biotinylated pan-phosphotyrosine antibody; format: binding, mouse; conditions: enrichment score, sheet SH2-vs-peptide
Protocol: After the desired time of library phosphorylation, kinase activity was quenched with 25 mM EDTA and the cells were washed with PBS containing 0.2% BSA. Kinase-treated cells were then labeled with a 1:1000 dilution of biotinylated 4G10 Platinum anti-phosphotyrosine antibody (Millipore) for an hour on ice and washed with PBS containing 0.1% BSA and 2 mM EDTA (isolation buffer). The cells were finally resuspended in PBS containing 0.1% BSA. The phosphorylated, antibody-labeled cells were then mixed with magnetic beads from Dynabeads FlowComp Flexi kit (Invitrogen), at a ratio of 37.5 μL of washed beads per 50 μL of cell suspension, diluted into 450 μL of isolation buffer. The suspension was rotated at 4 °C for 30 minutes, then 375 μL of isolation buffer was added and the beads were separated from the bulk solution on a magnetic rack. The beads were washed once with 1 mL of isolation buffer, and then the supertantant were removed by aspiration. […] The bead/lysate mixture was centrifuged to pellet the beads and the mixture was stored at -20 °C.

MERTK kinase domain = test: pTyr-Var library bacterial peptide display kinase screen (enrichment scores); format: biochemical, human
c-Src SH2 domain = c-Src SH2 domain (Homo sapiens, UniProt P12931); test: pTyr-Var library SH2 domain screen with SH2-dynabeads (enrichment scores)
c-Abl kinase domain = biological target: T1, c-Abl kinase domain (Mus musculus, UniProt P00520); test: pTyr-Var library bacterial peptide display kinase screen (enrichment scores); format: biochemical
T1 sequence (P00520 242-493 limits assumed): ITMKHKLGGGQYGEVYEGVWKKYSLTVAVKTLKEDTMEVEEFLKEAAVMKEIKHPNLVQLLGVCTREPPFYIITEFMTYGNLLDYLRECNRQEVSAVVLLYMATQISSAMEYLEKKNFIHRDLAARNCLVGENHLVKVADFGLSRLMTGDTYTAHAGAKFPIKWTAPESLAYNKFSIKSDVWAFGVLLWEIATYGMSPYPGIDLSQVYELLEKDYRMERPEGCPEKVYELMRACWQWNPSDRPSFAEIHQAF

Jak2 = test: as above; format: biochemical, human
SHP2 C-SH2 domain = test: pTyr-Var library SH2 domain screen with SH2-dynabeads (enrichment scores)
[2] = mean of log2 enrichment of reference peptide, n = 5
[3] = pTyr-Var library, reference peptide enrichment, mean of n = 5
[4] = mean of log2 of enrichment over R1-R4
[5] = pTyr-Var library, enrichment score, replicate 1
[6] = pTyr-Var library, enrichment score, replicate 3
[7] = pTyr-Var library, enrichment score, replicate 4
[8] = mean of log2 enrichment of reference peptide, n = 4
[9] = pTyr-Var library, reference peptide enrichment, mean of n = 4

- Fes mean of log2(enrichment) (Fes): -0.04028
- mean of log2(reference) (FGFR1 kinase domain; [2]): -0.9981
- ref. mean (FGFR1 kinase domain; [3]): 0.5192
- Fer mean of log2(enrichment) (Fer kinase domain; [4]): -1.275
- Fer enrich. R1 (Fer kinase domain; [5]): 0.6179
- Fer enrich. R3 (Fer kinase domain; [6]): 0.5252
- Fer enrich. R4 (Fer kinase domain; [7]): 0.2478
- mean of log2(reference) (EPHB1 kinase domain; [8]): -0.6057
- ref. mean (EPHB1 kinase domain; [9]): 0.6623
- AncSZ mean of log2(enrichment) (AncSZ kinase domain; mean of log2 of enrichment over R1-R5): -0.4662
- AncSZ enrich. R1 (AncSZ kinase domain; [5]): 0.5771
- AncSZ enrich. R3 (AncSZ kinase domain; [6]): 0.5974
- AncSZ enrich. R4 (AncSZ kinase domain; [7]): 1.037
- AncSZ enrich. R5 (AncSZ kinase domain; pTyr-Var library, enrichment score, replicate 5): 0.9242
- c-Src mean of log2(enrichment) (c-Src kinase domain; [4]): -1.394
- c-Src enrich. R1 (c-Src kinase domain; [5]): 0.4801
- c-Src enrich. R3 (c-Src kinase domain; [6]): 0.3246
- c-Src enrich. R4 (c-Src kinase domain; [7]): 0.3798
- Hck mean of log2(enrichment) (Hck kinase domain; mean of log2(variant) / mean of log2(reference), R1-R4): 0.599
- Hck enrich. R1 (Hck kinase domain; [5]): 0.4967
- Hck enrich. R3 (Hck kinase domain; [6]): 0.9831
- Hck enrich. R4 (Hck kinase domain; [7]): 0.3063
- mean of log2(reference) (FGFR3 kinase domain; [2]): -0.6609
- ref. mean (FGFR3 kinase domain; [3]): 0.649
- mean of log2(reference) (EPHB2 kinase domain; [8]): -0.8971
- ref. mean (EPHB2 kinase domain; [9]): 0.5418
- Fyn mean of log2(enrichment) (Fyn kinase domain; [4]): -1.219
- Fyn enrich. R1 (Fyn kinase domain; [5]): 0.5501
- Fyn enrich. R3 (Fyn kinase domain; [6]): 0.3301
- Fyn enrich. R4 (Fyn kinase domain; [7]): 0.4584
- mean of log2(reference) (MERTK kinase domain; [8]): -1.427
- ref. mean (MERTK kinase domain; [9]): 0.3924
- c-Src (mean) (c-Src SH2 domain; enrichment score, phosphorylated pTyr-Var library, sheet SH2-vs-peptide, mean): 0.535
- mean of log2(reference) (c-Src SH2 domain; mean of log2 enrichment of reference peptide, R1-R3, sheet c-Src): -0.9781
- ref. mean (c-Src SH2 domain; reference peptide, mean of R1-R3, sheet c-Src): 0.535
- c-Abl mean of log2(enrichment) (c-Abl kinase domain; [4]): -0.5355
- c-Abl enrich. R1 (c-Abl kinase domain; [5]): 0.4542
- c-Abl enrich. R3 (c-Abl kinase domain; [6]): 0.6528
- c-Abl enrich. R4 (c-Abl kinase domain; [7]): 0.8371
- Jak2 mean of log2(enrichment) (Jak2; mean of log2 of enrichment over R1-R3): -0.2312
- Jak2 enrich. R1 (Jak2; [5]): 0.7671
- Jak2 enrich. R3 (Jak2; [6]): 0.8013
Sequence: ATVLNYLPKCI [A2M_Y817]
- mean of log2(reference) (Grb2 SH2 domain; Grb2 SH2, mean of log2 enrichment of reference, R1-R3): -0.1568
- ref. mean (Grb2 SH2 domain; reference peptide enrichment score, Grb2 SH2, mean of R1-R3): 0.8993
- 4G10 (mean) [1]: 0.6373
- mean of log2(reference) (SHP2 C-SH2 domain; SHP2-C SH2, mean of log2 enrichment of reference, R1-R3): -0.4562
- ref. mean (SHP2 C-SH2 domain; reference peptide enrichment score, SHP2-C SH2, mean of R1-R3): 0.736
